Key:
[1] = test system: host cells; conditions: background, clinical treatment of HIV-infection; cited from earlier work
[2] = test system: HIV; assay: Inhibitory activity for HIV infection (prevention of death of HIV-infected MT-4 cells); assay type: cell-based; conditions: Human immunodeficiency virus 1, MT4, 120 h, 5 days incubation at 37° C., concentration preventing death of 50% of HIV-infected MT-4 cells
Protocol: (§1) In RPMI 1640 DM culture medium containing 20 mM of Hepes buffer solution, 10% fetal bovine serum and 20 µg/ml of gentamycin, 3×10^4 MT-4 cells (human T cell clone which is destroyed by the infection of HIV) were infected with HIV in an amount of 100 times as large as expected to cause 50% infection of the cells. Immediately thereafter, a predetermined amount of sample was added to the culture medium using 50 mg/ml sample solutions in dimethyl sulfoxide and the cells were cultured at 37° C.
(§2) After 5 days of incubation, the number of existing cells was counted to determine the concentration of the compound required for preventing the death of 50% of the MT-4 cells. Separately, MT-4 cells were cultured in the same way as above except that they were not infected with HIV to determine the concentration of the compound at which 50% of the MT-4 cells were destroyed.

[3] = Cytotoxicity to uninfected MT-4 cells; assay type: cell-based; conditions: human, 5 days incubation at 37° C., concentration at which 50% of cells were destroyed, read-out: 50% cytotoxic concentration to MT-4 cells
Protocol: as §1, §2

SMILES: Cc1cn([C@H]2C[C@H](N=[N+]=[N-])[C@@H](CO)O2)c(=O)[nH]c1=O [3'-deoxy-3'-azidothymidine]
- toxicity in the host cells [1]: considerable strong toxicity

SMILES: CCc1c(Sc2ccccc2)n(COCCO)c(=S)[nH]c1=O [Compound 1, 5-ethyl-1-[(2-hydroxyethoxy)methyl]-6-phenylthio-2-thiouracil]
- IC50 [2]: 110 nM
- CC50 at 120 h [3]: 148 µM

SMILES: CCc1c(Sc2cc(C)cc(C)c2)n(COCCO)c(=O)[nH]c1=O [Compound 2, 6-(3,5-dimethylphenylthio)-5-ethyl-1-[(2-hydroxyethoxy)methyl]uracil]
- CC50 at 120 h [3]: 149 µM

SMILES: CCc1c(Sc2cc(C)cc(C)c2)n(COCCO)c(=S)[nH]c1=O [Compound 3, 6-(3,5-dimethylphenylthio)-5-ethyl-1-[(2-hydroxyethoxy)methyl]-2-thiouracil]
- IC50 [2]: 7.8 nM
- CC50 at 120 h [3]: 227 µM

SMILES: CCc1c(Sc2cc(Cl)cc(Cl)c2)n(COCCO)c(=O)[nH]c1=O [Compound 6, 6-(3,5-dichlorophenylthio)-5-ethyl-1-[(2-hydroxyethoxy)methyl]uracil]
- IC50 [2]: 14 nM
- CC50 at 120 h [3]: 51 µM

SMILES: CCc1c(Sc2cc(Cl)cc(Cl)c2)n(COCCO)c(=S)[nH]c1=O [Compound 7, 6-(3,5-dichlorophenylthio)-5-ethyl-1-[(2-hydroxyethoxy)methyl]-2-thiouracil]
- IC50 [2]: 43 nM
- CC50 at 120 h [3]: 64 µM

SMILES: CCc1c(Cc2ccccc2)n(COCCO)c(=O)[nH]c1=O [Compound 10, 6-benzyl-5-ethyl-1-[(2-hydroxyethoxy)methyl]uracil]
- IC50 [2]: 350 nM
- CC50 at 120 h [3]: 391 µM

SMILES: CCc1c(Cc2cc(C)cc(C)c2)n(COCCO)c(=O)[nH]c1=O [Compound 12, 6-(3,5-dimethylbenzyl)-5-ethyl-1-[(2-hydroxyethoxy)methyl]uracil]
- IC50 [2]: 13 nM
- CC50 at 120 h [3]: 280 µM

SMILES: CC(C)c1c(Sc2ccccc2)n(COCCO)c(=S)[nH]c1=O [Compound 20, 1-[(2-hydroxyethoxy)methyl]-6-phenylthio-5-isopropyl-2-thiouracil]
- IC50 [2]: 59 nM
- CC50 at 120 h [3]: 400 µM

SMILES: Cc1cc(C)cc(Sc2c(C(C)C)c(=O)[nH]c(=O)n2COCCO)c1 [Compound 21, 6-(3,5-dimethylphenylthio)-1-[(2-hydroxyethoxy)methyl]-5-isopropyluracil]
- CC50 at 120 h [3]: 128 µM

SMILES: Cc1cc(C)cc(Sc2c(C(C)C)c(=O)[nH]c(=S)n2COCCO)c1 [Compound 22, 6-(3,5-dimethylphenylthio)-1-[(2-hydroxyethoxy)methyl]-5-isopropyl-2-thiouracil]
- IC50 [2]: 4.5 nM
- CC50 at 120 h [3]: 48 µM

SMILES: Cc1cc(C)cc(Cc2c(C(C)C)c(=O)[nH]c(=O)n2COCCO)c1 [Compound 31, 6-(3,5-dimethylbenzyl)-1-[(2-hydroxyethoxy)methyl]-5-isopropyluracil]
- IC50 [2]: 6.6 nM
- CC50 at 120 h [3]: 318 µM

SMILES: CCc1c(Sc2ccccc2)n(COCCO)c(=O)[nH]c1=O [Compound 39, 5-ethyl-1-[(2-hydroxyethoxy)methyl]-6-(phenylthio)uracil]
- IC50 [2]: 77 nM
- CC50 at 120 h [3]: 221 µM

SMILES: CC(C)c1c(Sc2ccccc2)n(COCCO)c(=O)[nH]c1=O [Compound 40, 1-[(2-hydroxyethoxy)methyl]-6-phenylthio-5-isopropyl-uracil]
- IC50 [2]: 63 nM
- CC50 at 120 h [3]: 231 µM

SMILES: CCCc1c(Sc2ccccc2)n(COCCO)c(=S)[nH]c1=O [compound 3, reference compound]
- IC50 [2]: 3400 nM
- CC50 at 120 h [3]: 224 µM

SMILES: CCCc1c(Sc2ccccc2)n(COCCO)c(=O)[nH]c1=O [compound 4, reference compound]
- IC50 [2]: 13000 nM
- CC50 at 120 h [3]: 282 µM
